System: subjects with relapsing remitting multiple sclerosis (RRMS)
Test: ALLEGRO Phase III trial: disability endpoints (EDSS, MSFC)
Assay type: in vivo, human
Conditions: for Time to confirmed (3 Ms) progression - EDSS, patients progressed: 24 months
Source text: Secondary endpoints were disability progression as measured by the EDSS and the Multiple Sclerosis Functional Composite (MSFC). Confirmed disability progression was defined as an increase of ≧1.0 EDSS point from baseline if baseline EDSS was between 0 and 5.0, or an increase of ≧0.5 point if baseline EDSS was ≧5.5. In order to confirm EDSS progression, these increases had to be sustained for at least three months. Additional predefined disability endpoints include the proportion of patients without confirmed disability progression at 24 months; confirmed disability progression (defined as change in EDSS scores ≧1.0 points for baseline EDSS 0 to 5.0 or ≧5.5) sustained for six months; the accumulation of physical disability as measured by mean EDSS and the mean change in EDSS from baseline to last observed value (LOV). For the MSFC, the measure was the total MSFC z score at 24 months (including patients who terminated after 12 months). The 9-hole peg test (9HPT) and the Paced Auditory Serial Addition Test (PASAT) were performed three times at screening to reduce confounding training effects during the trial. • 1. Accumulation of physical disability measured by the time to confirmed progression of EDSS during the study period (A confirmed progression of EDSS is defined as a 1 point increase from baseline on EDSS score if baseline EDSS was between 0 and 5.0, or a 0.5 point increase if the baseline EDSS was 5.5, confirmed 3 months later. Progression cannot be confirmed during a relapse). • 2. Disability, as assessed by the MSFC score at the end of the treatment period (month 24/30). • 3. The cumulative number of new T2 lesions on scans taken on months 12 and 24 (and 30 in the case of the 6 months extended study). • 4. The cumulative number of enhancing lesions on T1-weighted images taken on months 12 and 24 (and 30 in case of extending the study for 6 months.) Safety and Tolerability Outcome Measures • 1. Adverse events. • 2. Vital signs. • 3. Weight. • 4. Physical examination. • 5. Electrocardiogram (ECG) findings. • 6. Clinical laboratory parameters. • 7. Proportion of subjects (%) who prematurely discontinued from the study, reason of discontinuation and the time to withdrawal. • 8. Proportion of subjects (%) who prematurely discontinued form the study due to AEs and the time to withdrawal. […] To control against type-I error, the secondary endpoints were analyzed only after a significant effect was found for the primary endpoint. […] The MSFC at month 24 was analyzed using a baseline-adjusted ANCOVA (SAS@PROC GLM) with baseline MSFC as 1 degree of freedom covariate and baseline EDSS score, log of the 2-year prior relapse rate +1 and country or geographical region as additional covariates. […]

CCN(C(=O)c1c(O)c2c(Cl)cccc2n(C)c1=O)c1ccccc1 [Laquinimod, laquinimod]
Time to confirmed (3 Ms) progression - EDSS, patients progressed: 9.8% progressed
Time to confirmed (3 Ms) progression - EDSS, patients progressed (listed as laquinimod): 9.8 % progressed
EDSS score at LOV, median (last observed value): 2.5
MSFC total z scores at 24 months, Effect: reduction of risk to progress (vs placebo): 34% reduction of

Reference: patent US9662322B2 (TEVA PHARMACEUTICAL INDUSTRIES, LTD., priority 2014, dated 2017)
